pIC50: −log10 of the molar value. Counter-ions that a name gives are not always drawn. Like-named read-outs stand apart in the source and are kept apart here. Blank lines part the entries; values can stand above or below the compound they belong to.
What was measured:
Type in all cases: biochemical
PTEN [1] = molecular target: T1, PTEN (Homo sapiens, UniProt P60484); assay: PTEN Inhibition Assay: General Screening
PTP1B = molecular target: T2, PTP1B (Homo sapiens, UniProt P18031); assay: PTP1B Inhibition Assay: IC50 Determinations
T2 sequence (P18031 1-435): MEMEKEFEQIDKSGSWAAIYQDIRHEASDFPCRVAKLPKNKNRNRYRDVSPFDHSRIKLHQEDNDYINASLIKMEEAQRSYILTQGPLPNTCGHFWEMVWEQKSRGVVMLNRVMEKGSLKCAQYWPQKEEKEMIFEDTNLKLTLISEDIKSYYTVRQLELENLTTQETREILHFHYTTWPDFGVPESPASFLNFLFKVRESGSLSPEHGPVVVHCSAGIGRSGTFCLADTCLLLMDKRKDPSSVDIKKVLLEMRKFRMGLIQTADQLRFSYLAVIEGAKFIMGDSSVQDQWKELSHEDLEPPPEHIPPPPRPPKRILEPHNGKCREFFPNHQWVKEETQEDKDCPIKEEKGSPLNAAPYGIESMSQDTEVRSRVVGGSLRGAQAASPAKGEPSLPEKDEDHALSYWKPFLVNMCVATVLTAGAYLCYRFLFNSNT

PTEN [2] = molecular target: T1, PTEN; assay: PTEN Inhibition Assay: IC50 Determinations
[3] = read-out: % Inhibition at 250 uM
[4] = 250 uM, Table 23 polyamides, read-out: % Inhibition @250 uM
[5] = 250 uM, Table 15 diamides, furazan core, read-out: % Inhibition @ 250 uM
[6] = 250 uM, Table 24 known PTP inhibitors, read-out: % Inhibition at 250 uM
[7] = 250 uM, Table 22 imidazoles, read-out: % Inhibition at 250 uM
[8] = read-out: % Inhibition @ 250 uM
[9] = 250 uM, Table 27 isatins, read-out: % Inhibition @250 uM

T1 sequence (P60484 whole entry, species assumed): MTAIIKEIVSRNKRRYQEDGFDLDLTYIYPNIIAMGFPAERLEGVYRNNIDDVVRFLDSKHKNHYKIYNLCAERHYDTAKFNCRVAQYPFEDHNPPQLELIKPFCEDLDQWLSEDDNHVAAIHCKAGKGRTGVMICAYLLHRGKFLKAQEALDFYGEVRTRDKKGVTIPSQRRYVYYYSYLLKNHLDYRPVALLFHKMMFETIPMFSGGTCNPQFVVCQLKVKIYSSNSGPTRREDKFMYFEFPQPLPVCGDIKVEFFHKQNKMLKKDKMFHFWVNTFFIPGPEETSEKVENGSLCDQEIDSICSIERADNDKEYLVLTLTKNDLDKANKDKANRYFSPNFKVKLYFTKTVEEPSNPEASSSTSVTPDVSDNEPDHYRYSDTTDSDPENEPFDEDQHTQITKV

Compound: CC(C)=C[C@@H]1[C@H](C(=O)OCc2coc(Cc3ccccc3)c2)C1(C)C (mixture of isomers) [SF1671-000, 5-Benzyl-3-furylmethyl (1R,S)-cis,trans-chrysanthemate, reference compound]
inhibition at 250 µM (PTEN [1]; [3]): 9.6%

Compound: CC1(C)C(C=C(Cl)Cl)[C@H]1C(=O)O[C@@H](C#N)c1cccc(Oc2ccccc2)c1 (stereo in doubt) [SF1687-000, Cypermethrin, reference compound]
inhibition at 250 µM (PTEN [1]; [3]): -5.9%

Compound: NCCCC(O)(P(=O)([O-])O)P(=O)(O)O.[Na+] [CC1669-100, Alendronate, Sodium, Trihydrate, reference compound]
% Inhibition @ 250 uM in PTEN Assay (PTEN [1]): minimal activity
inhibition at 250 µM (PTEN [1]; read-out: % Inhibition @ 250 uM in PTEN Assay): -0.9 to 20%

inhibition at 250 µM (PTEN [1]; [4]): 35.3%
Compound: O=C(CCC(=O)NNC(=O)COc1ccc(Cl)cc1)NNC(=O)COc1ccc(Cl)cc1 [SF1516-000]

inhibition at 250 µM (PTEN [1]; [4]): 52.4%
Compound: CCOC(=O)CNC(=O)C(c1ccc(O)cc1)N(C(=O)c1snc(C(N)=O)c1N)c1ccc2c(c1)OCO2 (centres unmarked) [SF1552-000]

inhibition at 250 µM (PTEN [1]; [4]): 70.6%
Compound: CCOC(=O)CNC(=O)C(c1ccc2ncccc2c1)N(CC1CCCO1)C(=O)c1snc(C(N)=O)c1N (centres unmarked) [SF1566-000]

inhibition at 250 µM (PTEN [1]; [4]): 60.2%
Compound: Nc1nonc1NC(=O)N/N=C/CCC/C=N/NC(=O)Nc1nonc1N [SF1567-000]

pIC50 (PTP1B; Table 29, read-out: PTP1B IC50): 5.24
pIC50 (PTEN [2]; Table 29, read-out: PTEN IC50): 3.95 to 4.10
inhibition at 250 µM (PTEN [1]; [5]): 58 to 80%
Compound: Cc1ccc(C)c(OCC(=O)Nc2nonc2NC(=O)COc2cc(C)ccc2C)c1 [SF1609-000]

pIC50 (PTP1B; Table 29, read-out: PTP1B IC50): 4.87
pIC50 (PTEN [2]; Table 29, read-out: PTEN IC50): 4.08 to 4.18
inhibition at 250 µM (PTEN [1]; [5]): 3 to 81%
Compound: CC(C)c1ccccc1OCC(=O)Nc1nonc1NC(=O)COc1ccccc1C(C)C [SF1617-000]

inhibition at 250 µM (PTEN [1]; 250 uM, Table 16, read-out: % Inhibition @ 250 uM): 2.2%
Compound: O=C(COc1ccccc1)NC1CCCCC1NC(=O)COc1ccccc1 (centres unmarked) [SF1647-000]

Compound: CC1(C)[C@H](C=C(Br)Br)[C@@H]1C(=O)OC(C#N)c1cccc(Oc2ccccc2)c1 (some centres unmarked) [SF1667-000, Deltamethrin, reference compound]
inhibition at 250 µM (PTEN [1]; [3]): 0.3%

inhibition at 250 µM (PTEN [1]; [6]): -9.9%
Compound: Cc1ccc(C(=O)Nc2ccc(S(=O)(=O)O)c3cc(S(=O)(=O)O)cc(S(=O)(=O)O)c23)cc1NC(=O)c1cccc(NC(=O)Nc2cccc(C(=O)Nc3cc(C(=O)Nc4ccc(S(=O)(=O)O)c5cc(S(=O)(=O)O)cc(S(=O)(=O)O)c45)ccc3C)c2)c1 [SF1672-100, Suramin, Sodium Salt, reference compound]

Compound: CC12CCC(C)(O1)C(C(=O)O)C2C(=O)O (centres unmarked) [SF1676-000, 1,4-Dimethylendothall, reference compound]
inhibition at 250 µM (PTEN [1]; [3]): 3.3%

Compound: CC1(C(=O)O)C2CCC(O2)C1(C)C(=O)O (centres unmarked) [SF1679-000, Cantharidic Acid, reference compound]
inhibition at 250 µM (PTEN [1]; [3]): 2.7%

Compound: CCN(N=O)c1ccc(O)c(O)c1 [SF1681-000, 3,4-Dephostatin, Ethyl-, reference compound]
pIC50 (PTP1B): 4.30
pIC50 (PTEN [2]): 4.30
inhibition at 250 µM (PTEN [1]; [3]): 82.4%

Compound: CC(C)C(C(=O)OC(C#N)c1cccc(Oc2ccccc2)c1)c1ccc(Cl)cc1 (centres unmarked) [SF1683-000, Fenvalerate, reference compound]
inhibition at 250 µM (PTEN [1]; [3]): -25.5%

Compound: O=P(O)(O)Oc1cccc2ccccc12 [SF1684-100, α-Naphthyl Acid Phosphate, Monosodium Salt, reference compound]
inhibition at 250 µM (PTEN [1]; [3]): 11.2%

inhibition at 250 µM (PTEN [1]; [6]): 10.9%
Compound: O=P(O)(O)OC(CO)CO [SF1685-100, β-Glycerophosphate, Disodium Salt, Pentahydrate, reference compound]

Compound: O=C(O)[C@@H]1[C@H](C(=O)O)[C@H]2CC[C@@H]1O2 [SF1686-000, Endothall, reference compound]
inhibition at 250 µM (PTEN [1]; [3]): -1.2%

pIC50 (PTP1B; Table 29, read-out: PTP1B IC50): 4.22
pIC50 (PTEN [2]; Table 29, read-out: PTEN IC50): 4.30
inhibition at 250 µM (PTEN [1]; [7]): 57 to 95%
Compound: Cc1cccc(-n2cnc(C(=O)NNC(=O)c3ccc(C(C)(C)C)cc3)c2)n1 [SF1708-000]

Compound: O=C1C(=O)c2ccccc2-c2ccccc21 [SF1721-000]
pIC50 (PTP1B): 4.77
pIC50 (PTEN [2]): 5.47
inhibition at 250 µM (PTEN [1]; [8]): 99.7%

Compound: O=C1C(=O)c2cc([N+](=O)[O-])ccc2-c2ccccc21 [SF1722-000]
pIC50 (PTEN [2]): 5.40
inhibition at 250 µM (PTEN [1]; [8]): 99.3%

inhibition at 250 µM (PTEN [1]; [7]): 15.9%
Compound: CC(C)(C)c1ccc(C(=O)NNC(=O)c2ccc(C(C)(C)C)cc2)cc1 [SF1733-000]

Compound: Oc1cc2ccccc2c2ccccc12 [SF1734-000]
pIC50 (PTEN [2]): 4.48

pIC50 (PTP1B; Table 29, read-out: PTP1B IC50): < 3.60
pIC50 (PTEN [2]; Table 28, read-out: PTEN IC50): 4.70
Compound: O=C1CC(S(=O)(=O)O)c2ccccc2C1=O (centres unmarked) [SF1735-000]

Compound: O=C1C=Cc2ccccc2C1=O [SF1736-000]
pIC50 (PTEN [2]): 4.68

Compound: O=C1C=CC(=O)c2ccccc21 [SF1737-000]
pIC50 (PTEN [2]): 4.37

Compound: COc1ccc(OCC(=O)Nc2ccc3c(c2)C(=O)C(=O)c2ccccc2-3)cc1 [SF1751-000]
pIC50 (PTP1B; Table 29, read-out: PTP1B IC50): 5.52
pIC50 (PTEN [2]; Table 29, read-out: PTEN IC50): 6.52
inhibition at 250 µM (PTEN [1]; [8]): 99.2%

Compound: Cc1ccc(OCC(=O)Nc2ccc3c(c2)C(=O)C(=O)c2ccccc2-3)cc1 [SF1771-000]
pIC50 (PTP1B): 6.35
pIC50 (PTEN [2]): 6.40
inhibition at 250 µM (PTEN [1]; [8]): 99.2%

Compound: CC(C)c1ccccc1OCC(=O)Nc1ccc2c(c1)C(=O)C(=O)c1ccccc1-2 [SF1772-000]
pIC50 (PTP1B; Table 29, read-out: PTP1B IC50): 6.17
pIC50 (PTEN [2]; Table 29, read-out: PTEN IC50): 6.36
inhibition at 250 µM (PTEN [1]; [8]): 99.4%

Compound: O=C1C(=O)c2cc(NS(=O)(=O)c3ccc([N+](=O)[O-])cc3)ccc2-c2ccccc21 [SF1774-000]
pIC50 (PTP1B; Table 29, read-out: PTP1B IC50): 6.48
pIC50 (PTEN [2]; Table 29, read-out: PTEN IC50): 6.67
inhibition at 250 µM (PTEN [1]; [8]): 98.6%

pIC50 (PTP1B; Table 29, read-out: PTP1B IC50): 4.96
pIC50 (PTEN [2]; Table 29, read-out: PTEN IC50): 4.66
inhibition at 250 µM (PTEN [1]; [9]): 98.5%
Compound: Cc1ccc(C(=O)Nc2ccc3c(c2)C(=O)C(=O)N3)cc1 [SF1778-000]

Compound: CC(C)(C)c1ccc(S(=O)(=O)Nc2ccc3c(c2)C(=O)C(=O)c2ccccc2-3)cc1 [SF1780-000]
pIC50 (PTP1B; Table 29, read-out: PTP1B IC50): 6.92
pIC50 (PTEN [2]; Table 29, read-out: PTEN IC50): 6.57
inhibition at 250 µM (PTEN [1]; [8]): 98%

pIC50 (PTP1B; Table 29, read-out: PTP1B IC50): 6.53
pIC50 (PTEN [2]; Table 29, read-out: PTEN IC50): 4.72
inhibition at 250 µM (PTEN [1]; [9]): 97.8%
Compound: O=C(COc1ccccc1)Nc1ccc2c(c1)C(=O)C(=O)N2 [SF1781-000]

pIC50 (PTP1B; Table 29, read-out: PTP1B IC50): 5.96
pIC50 (PTEN [2]; Table 29, read-out: PTEN IC50): 5.34
inhibition at 250 µM (PTEN [1]; [9]): 97.8%
Compound: O=C1C(=O)N(Cc2ccc(Cl)cc2Cl)c2ccc([N+](=O)[O-])cc21 [SF1783-000]

Compound: O=C(CCCc1ccccc1)Nc1ccc2c(c1)C(=O)C(=O)c1ccccc1-2 [SF1785-000]
pIC50 (PTP1B): 5.00 to 6.00
pIC50 (PTEN [2]): 5.30
inhibition at 250 µM (PTEN [1]; [8]): 97.9%

Compound: CCOC(=O)C(=O)Nc1ccc2c(c1)C(=O)C(=O)c1ccccc1-2 [SF1786-000]
pIC50 (PTP1B): > 6.00
pIC50 (PTEN [2]): 6.16
inhibition at 250 µM (PTEN [1]; [8]): 99.8%

Compound: COc1ccccc1OCC(=O)Nc1ccc2c(c1)C(=O)C(=O)c1ccccc1-2 [SF1787-000]
pIC50 (PTP1B; Table 29, read-out: PTP1B IC50): > 6.00
pIC50 (PTEN [2]; Table 29, read-out: PTEN IC50): 6.26
inhibition at 250 µM (PTEN [1]; [8]): 94.7%

Compound: COc1cccc(OCC(=O)Nc2ccc3c(c2)C(=O)C(=O)c2ccccc2-3)c1 [SF1788-000]
pIC50 (PTP1B; Table 29, read-out: PTP1B IC50): > 6.00
pIC50 (PTEN [2]; Table 29, read-out: PTEN IC50): 6.39
inhibition at 250 µM (PTEN [1]; [8]): 96.9%

Compound: O=C(CNc1ccc2c(c1)C(=O)C(=O)c1ccccc1-2)OCc1ccccc1 [SF1807-000]
pIC50 (PTP1B): > 6.00
inhibition at 250 µM (PTEN [1]; [8]): 93.9%

Compound: CCOC(=O)Nc1ccc2c(c1)C(=O)C(=O)c1ccccc1-2 [SF1808-000]
pIC50 (PTP1B): > 6.00
inhibition at 250 µM (PTEN [1]; [8]): 96.2%

Compound: CCOC(=O)c1cccc(OCC(=O)Nc2ccc3c(c2)C(=O)C(=O)c2ccccc2-3)c1 [SF1811-000]
inhibition at 250 µM (PTEN [1]; [8]): 98.6%

pIC50 (PTP1B; Table 29, read-out: PTP1B IC50): < 5.00
inhibition at 250 µM (PTEN [1]; [9]): 40.5%
Compound: O=C(CCc1ccccc1[N+](=O)[O-])Nc1ccc2c(c1)C(=O)C(=O)N2 [SF1812-000]

pIC50 (PTEN [2]; Table 29, read-out: PTEN IC50): 4.61
inhibition at 250 µM (PTEN [1]; [9]): 97.3%
Compound: O=C1Nc2c(Cl)ccc(Cl)c2C1=O [SF1822-000]

Compound: Monoperoxo(picolinato)oxovanadate(V) [SF1677-000, reference compound]
% Inh. @ 250 uM in PTEN Assay (PTEN [1]): 96.9%

Source: patent US20070203098A1, “Pten Inhibitors” (priority 2004, published 2007)
